Test results taken from patent US12258344B2, “Azaaromatic amide derivatives for the treatment of cancer” (SHENZHEN FORWARD PHARMACEUTICALS CO., LTD., priority 2019, dated 2025).

Tests used:
BaF3 (EGFR/D770insSVD) [1] = biological target: T1, BaF3 (EGFR/D770insSVD) (Homo sapiens, UniProt P00533, cells depend on it, form not given); assay: Test 13: EGFR exon 20 inserted D770insSVD cell proliferation test; format: cell-based; conditions: A763insFQEA, V769insASV, D770insSVD (tests 13-15), in words
T1 construct: other: A763insFQEA, V769ins
How it was run: (§1)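 BaF3 cells expressing EGFR D770insSVD, 3,000 cells/well, seeded overnight at 37° C, 5% CO2, then exposed to serially diluted compound for 72 h. Viable cells read by CellTiter-Glo luminescence; values from curve fitting.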

BaF3 (EGFR/D770insSVD) [2] = biological target: T2, BaF3 (EGFR/D770insSVD) (Homo sapiens, UniProt P00533, DUP768-770, cells depend on it); assay: as above; format: cell-based; conditions: BaF3 (EGFR/D770insSVD), 72 hours, Cell Titer-Glo; read-out: Test 13 IC50
T2 construct: Test 13 IC50 (nM); other: BaF3 (EGFR/D770insSVD), 72 hours, Cell Titer-Glo
How it was run: as §1

BaF3 (EGFR/L861Q) = BaF3 (EGFR/L861Q) (Homo sapiens, UniProt P00533, cells depend on it, form not given); assay: Test 20: EGFR/L861Q mutant cell line proliferation test; format: cell-based; conditions: 72 hours, Cell Titer-Glo, read-out: Test 20 IC50
Procedure: The number of viable cells in the culture was measured according to the protocol described in Promega's Cell Titer-Glo Luminescent cell Viability Assay (Promega catalog number #G7570). 90 μl of cells (3,000 cells/well) were cultured in growth medium in a Corning black transparent bottom 96-well plate, and cultured in a 5% CO2 humidified incubator at 37° C. overnight. […] 100 μl of the mixed Cell Titer-Glo reagent was added to the cells in the 96-well culture plate to lyse the cells and mix gently. Subsequently, the […] was detected on the Envision microplate detector to obtain the data of each compound. Finally, the data was input into a suitable software package (such as Prism) for curve fitting analysis.

BaF3 (EGFR/S768I) [3] = biological target: T3, BaF3 (EGFR/S768I) (Homo sapiens, UniProt P00533, cells depend on it, form not given); assay: Test 19: EGFR/S768I mutant cell line proliferation test; format: cell-based; conditions: BaF3 (EGFR/S768I), 72 hours, Cell Titer-Glo; read-out: Test 19 IC50
T3 construct: other: BaF3 (EGFR/S768I), 72 hours, Cell Titer-Glo
Procedure: (§2) Test 19: EGFR/S768I Mutant Cell Line Proliferation Test
(§3) The number of viable cells in the culture was measured according to the protocol described in Promega's Cell Titer-Glo Luminescent cell Viability Assay (Promega catalog number #G7570). 90 μl of cells (3,000 cells/well) were cultured in growth medium in a Corning black transparent bottom 96-well plate, and cultured in a 5% CO2 humidified incubator at 37° C. overnight. The compound serially diluted in 100% DMSO was added to the cells using a pipette, and the cells were incubated for another 72 hours. 100 μl of the mixed Cell Titer-Glo reagent was added to the cells in the 96-well culture plate to lyse the cells and mix gently. Subsequently, the […] was detected on the Envision microplate detector to obtain the data of each compound. Finally, the data was input into a suitable software package (such as Prism) for curve fitting analysis.

BaF3 (EGFR/S768I) [4] = biological target: T4, BaF3 (EGFR/S768I) (Homo sapiens, UniProt P00533, cells depend on it, form not given); assay: as above; format: cell-based; conditions: EGFR S768I and EGFR L861Q (tests 19-20), in words
T4 construct: other: EGFR S768I and EGFR L8
Procedure: as §2, §3

BaF3 (EGFR/N771insH) [5] = biological target: T5, BaF3 (EGFR/N771insH) (Homo sapiens, UniProt P00533, cells depend on it, form not given); assay: Test 16: EGFR exon 20 inserted N771insH cell proliferation test; format: cell-based; conditions: BaF3 (EGFR/N771insH), 72 hours, Cell Titer-Glo; read-out: Test 16 IC50
T5 construct: Test 16 IC50 (nM); other: BaF3 (EGFR/N771insH), 72 hours, Cell Titer-Glo

BaF3 (EGFR/N771insH) [6] = biological target: T6, BaF3 (EGFR/N771insH) (Homo sapiens, UniProt P00533, cells depend on it, form not given); assay: as above; format: cell-based; conditions: N771insH, D770insNPG, V774insHV (tests 16-18), in words
T6 construct: other: N771insH, D770insNPG

BaF3 (EGFR/V774insHV) = BaF3 (EGFR/V774insHV) (Homo sapiens, UniProt P00533, cells depend on it, form not given); assay: Test 18: EGFR exon 20 inserted V774insHV cell proliferation test; format: cell-based; conditions: 72 hours, Cell Titer-Glo, read-out: Test 18 IC50
Procedure: as §3

BaF3 (EGFR/V769insASV) = BaF3 (EGFR/V769insASV) (Homo sapiens, UniProt P00533, DUP767-769, cells depend on it); assay: Test 15: EGFR exon 20 inserted V769insASV cell proliferation test; format: cell-based; conditions: 72 hours, Cell Titer-Glo, read-out: Test 15 IC50
How it was run: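 BaF3 cells expressing EGFR V769insASV (3000 cells/well) plated overnight, then exposed to DMSO-diluted compound series for 72 h at 37 °C, 5% CO2. Viability by CellTiter-Glo luminescence; values from curve fitting.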

BaF3 (HER2/P780insGSP) = BaF3 (HER2/P780insGSP) (Homo sapiens, UniProt P04626, cells depend on it, form not given); assay: Test 22: HER2 exon 20 inserted P780insGSP cell proliferation test; format: cell-based; conditions: 72 hours, Cell Titer-Glo, read-out: test 22 IC50
Procedure: Test 22: HER2 Exon 20 Inserted P780insGSP Cell Proliferation Test
The engineered cell line BaF3 (HER2/P780insGSP) was constructed by the inventor himself (for the method of cell line construction, see Jingrui Jiang et al., Cancer Res. 2005 Oct. 1; 65 (19): 8964-74; Jacqulyne P. Robichaux et al., Nat Med. 2018 May; 24 (5): 638-646). BaF3 (HER2/P780insGSP) was cultured in RPMI 1640 medium containing 10% fetal bovine serum and 2 mM glutamine, and the cells were grown at 37° C. in a humidified incubator with 5% CO2.
as §3

BaF3 (HER2/A775insYVMA) = biological target: T7, BaF3 (HER2/A775insYVMA) (Homo sapiens, UniProt P04626, cells depend on it, form not given); assay: Test 21: HER2 exon 20 inserted A775insYVMA cell proliferation test; format: cell-based; conditions: BaF3 (HER2/A775insYVMA), 72 hours, Cell Titer-Glo; read-out: test 21 IC50
T7 construct: other: BaF3 (HER2/A775insYVMA), 72 hours, Cell Titer-Glo
Procedure: Test 21: HER2 Exon 20 Inserted A775insYVMA Cell Proliferation Test
as §3

BaF3 (EGFR/A763insFQEA) = BaF3 (EGFR/A763insFQEA) (Homo sapiens, UniProt P00533, INS763FQEA, cells depend on it); assay: Test 14: EGFR exon 20 inserted A763insFQEA cell proliferation test; format: cell-based; conditions: 72 hours, Cell Titer-Glo, read-out: Test 14 IC50
How it was run: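 BaF3 cells dependent on EGFR A763insFQEA, plated at 3,000 cells/well and cultured overnight at 37 °C, 5% CO2, then exposed to compound serial dilutions in DMSO for 72 h. Viable cells quantified by CellTiter-Glo luminescence; values from curve fitting.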

BaF3 (EGFR/D770insNPG) = BaF3 (EGFR/D770insNPG) (Homo sapiens, UniProt P00533, cells depend on it, form not given); assay: Test 17: EGFR exon 20 inserted D770insNPG cell proliferation test; format: cell-based; conditions: 72 hours, Cell Titer-Glo, read-out: Test 17 IC50
Procedure: Test 17: EGFR Exon 20 Inserted D770insNPG Cell Proliferation Test
as §3

HER4 kinase = biological target: T8, HER4 kinase (Homo sapiens, UniProt Q15303); assay: Test 24: HER4 kinase inhibition test; format: biochemical
T8 construct: made in house
Procedure: Test 24: HER4 Kinase Inhibition Test
Next, 100% DMSO was used to formulate the test compound into a solution of 50× at the final test concentration, and then sequentially diluted to 10 test concentrations; 100 μL of 100% DMSO was added to the blank control well as a negative control group without the compound and kinase. […] Finally, 10 μL of 2.5× peptide solution was added to the 384-well plate. After incubating at 25° C. for 10 minutes, 25 μL of reaction stop solution was added. Finally, the absorbance was detected on the Envision microplate detector to obtain the data of each compound. Finally, the data was input into a suitable software package (such as Prism) for curve fitting analysis.

BaF3 (HER2/G776insVC) = BaF3 (HER2/G776insVC) (Homo sapiens, UniProt P04626, cells depend on it, form not given); assay: Test 23: HER2 exon 20 inserted G776insVC cell proliferation test; format: cell-based; conditions: 72 hours, Cell Titer-Glo, read-out: test 23 IC50
Procedure: Test 23: HER2 Exon 20 Inserted G776insVC Cell Proliferation Test
as §3

T8 sequence (Q15303 26-1308): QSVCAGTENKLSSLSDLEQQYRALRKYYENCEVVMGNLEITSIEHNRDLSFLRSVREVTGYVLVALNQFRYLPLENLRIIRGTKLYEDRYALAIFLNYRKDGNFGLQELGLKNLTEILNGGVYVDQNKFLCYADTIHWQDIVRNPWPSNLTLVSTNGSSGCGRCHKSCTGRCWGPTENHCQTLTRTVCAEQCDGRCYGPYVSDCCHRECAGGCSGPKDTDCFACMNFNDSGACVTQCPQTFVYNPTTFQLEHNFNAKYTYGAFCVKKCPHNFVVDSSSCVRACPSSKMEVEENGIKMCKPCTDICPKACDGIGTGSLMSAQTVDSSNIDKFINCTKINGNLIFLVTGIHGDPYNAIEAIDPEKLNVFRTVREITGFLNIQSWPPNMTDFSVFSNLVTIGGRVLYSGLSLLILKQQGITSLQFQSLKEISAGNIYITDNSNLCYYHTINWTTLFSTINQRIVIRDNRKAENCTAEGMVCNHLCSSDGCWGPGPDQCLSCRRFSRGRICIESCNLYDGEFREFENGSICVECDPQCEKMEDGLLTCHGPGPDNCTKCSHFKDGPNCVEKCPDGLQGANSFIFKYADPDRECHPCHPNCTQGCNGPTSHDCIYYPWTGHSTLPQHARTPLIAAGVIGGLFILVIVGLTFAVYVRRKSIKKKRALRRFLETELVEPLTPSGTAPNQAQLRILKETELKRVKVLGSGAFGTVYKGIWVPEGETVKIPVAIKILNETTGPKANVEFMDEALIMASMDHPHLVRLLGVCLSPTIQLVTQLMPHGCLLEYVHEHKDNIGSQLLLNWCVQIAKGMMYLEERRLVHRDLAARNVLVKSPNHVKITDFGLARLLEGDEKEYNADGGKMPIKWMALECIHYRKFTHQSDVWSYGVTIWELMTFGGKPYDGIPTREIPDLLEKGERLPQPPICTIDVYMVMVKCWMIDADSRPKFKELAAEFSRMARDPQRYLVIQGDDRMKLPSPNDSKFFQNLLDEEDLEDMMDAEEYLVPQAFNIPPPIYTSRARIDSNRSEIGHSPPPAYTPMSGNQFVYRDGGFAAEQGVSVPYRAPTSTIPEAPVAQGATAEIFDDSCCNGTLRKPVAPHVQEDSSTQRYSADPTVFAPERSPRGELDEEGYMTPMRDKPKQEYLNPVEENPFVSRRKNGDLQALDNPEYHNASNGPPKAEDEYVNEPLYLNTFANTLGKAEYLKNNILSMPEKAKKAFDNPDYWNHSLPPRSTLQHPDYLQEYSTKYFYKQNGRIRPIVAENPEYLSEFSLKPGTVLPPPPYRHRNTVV
T7 sequence (P04626 with tags, fused parts or gaps DUP778-780): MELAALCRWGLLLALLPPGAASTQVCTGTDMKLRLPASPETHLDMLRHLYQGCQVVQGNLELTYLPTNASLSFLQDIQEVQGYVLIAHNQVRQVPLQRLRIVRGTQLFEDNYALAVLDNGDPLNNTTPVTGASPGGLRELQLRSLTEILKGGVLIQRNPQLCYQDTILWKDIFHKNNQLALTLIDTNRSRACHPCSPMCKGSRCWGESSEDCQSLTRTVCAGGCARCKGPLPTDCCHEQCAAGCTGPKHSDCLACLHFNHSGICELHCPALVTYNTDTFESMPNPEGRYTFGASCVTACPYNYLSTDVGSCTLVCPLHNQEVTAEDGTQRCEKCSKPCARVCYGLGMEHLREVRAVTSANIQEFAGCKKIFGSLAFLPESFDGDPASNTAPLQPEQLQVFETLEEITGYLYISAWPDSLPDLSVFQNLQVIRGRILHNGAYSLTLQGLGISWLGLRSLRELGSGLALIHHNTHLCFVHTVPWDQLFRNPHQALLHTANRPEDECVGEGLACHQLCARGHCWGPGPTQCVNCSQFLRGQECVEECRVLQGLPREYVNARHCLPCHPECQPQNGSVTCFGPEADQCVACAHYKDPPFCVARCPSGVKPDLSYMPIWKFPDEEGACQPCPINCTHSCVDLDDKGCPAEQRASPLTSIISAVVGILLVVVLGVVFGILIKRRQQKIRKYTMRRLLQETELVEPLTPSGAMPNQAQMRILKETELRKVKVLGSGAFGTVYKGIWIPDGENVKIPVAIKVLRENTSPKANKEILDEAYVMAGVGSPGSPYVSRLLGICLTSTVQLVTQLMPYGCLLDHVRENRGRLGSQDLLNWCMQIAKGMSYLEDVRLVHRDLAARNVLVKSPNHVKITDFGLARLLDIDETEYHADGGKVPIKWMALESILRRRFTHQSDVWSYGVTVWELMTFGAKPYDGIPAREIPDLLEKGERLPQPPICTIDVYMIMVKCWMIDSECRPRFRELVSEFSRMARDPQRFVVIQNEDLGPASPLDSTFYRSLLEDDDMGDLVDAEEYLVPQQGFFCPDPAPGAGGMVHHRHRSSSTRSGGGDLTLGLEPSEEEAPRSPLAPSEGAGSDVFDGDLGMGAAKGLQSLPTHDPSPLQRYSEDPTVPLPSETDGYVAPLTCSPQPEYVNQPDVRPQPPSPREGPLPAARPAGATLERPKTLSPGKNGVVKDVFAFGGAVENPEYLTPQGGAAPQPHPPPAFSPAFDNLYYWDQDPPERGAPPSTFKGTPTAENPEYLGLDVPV
Chain of BaF3 (HER2/G776insVC) (P04626 with tags, fused parts or gaps DUP772-775): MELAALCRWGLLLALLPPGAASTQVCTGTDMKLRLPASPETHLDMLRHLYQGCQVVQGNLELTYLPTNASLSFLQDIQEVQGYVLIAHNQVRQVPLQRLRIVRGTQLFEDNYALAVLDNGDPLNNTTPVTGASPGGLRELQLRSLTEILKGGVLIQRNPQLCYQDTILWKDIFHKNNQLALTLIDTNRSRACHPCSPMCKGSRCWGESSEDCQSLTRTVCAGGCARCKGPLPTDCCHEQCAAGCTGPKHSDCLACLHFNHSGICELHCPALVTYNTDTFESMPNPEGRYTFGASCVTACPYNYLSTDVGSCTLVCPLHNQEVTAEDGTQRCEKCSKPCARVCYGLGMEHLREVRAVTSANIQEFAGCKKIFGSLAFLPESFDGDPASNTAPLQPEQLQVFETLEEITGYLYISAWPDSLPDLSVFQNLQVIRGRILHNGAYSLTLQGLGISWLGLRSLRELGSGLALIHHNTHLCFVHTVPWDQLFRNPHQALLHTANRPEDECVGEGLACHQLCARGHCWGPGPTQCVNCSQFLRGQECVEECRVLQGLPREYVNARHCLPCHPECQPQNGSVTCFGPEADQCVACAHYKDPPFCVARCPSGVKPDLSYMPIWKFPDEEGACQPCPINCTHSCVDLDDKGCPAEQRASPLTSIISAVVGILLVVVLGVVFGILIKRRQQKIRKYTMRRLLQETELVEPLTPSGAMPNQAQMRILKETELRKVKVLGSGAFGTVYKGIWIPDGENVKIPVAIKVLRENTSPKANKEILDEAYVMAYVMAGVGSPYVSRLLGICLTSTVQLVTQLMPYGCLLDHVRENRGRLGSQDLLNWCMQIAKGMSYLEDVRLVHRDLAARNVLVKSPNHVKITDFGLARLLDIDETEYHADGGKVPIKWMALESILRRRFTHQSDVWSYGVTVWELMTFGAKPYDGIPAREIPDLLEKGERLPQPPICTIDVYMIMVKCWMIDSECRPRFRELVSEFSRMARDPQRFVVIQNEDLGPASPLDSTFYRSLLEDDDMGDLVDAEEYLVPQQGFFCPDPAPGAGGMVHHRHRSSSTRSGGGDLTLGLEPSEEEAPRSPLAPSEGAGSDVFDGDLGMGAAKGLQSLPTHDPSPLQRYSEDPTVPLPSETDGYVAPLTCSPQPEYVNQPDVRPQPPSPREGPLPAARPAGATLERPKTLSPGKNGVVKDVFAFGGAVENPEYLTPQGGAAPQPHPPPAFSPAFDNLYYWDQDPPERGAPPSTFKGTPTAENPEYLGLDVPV
Chain of BaF3 (HER2/P780insGSP) (P04626 with tags, fused parts or gaps DELINS776-776VC): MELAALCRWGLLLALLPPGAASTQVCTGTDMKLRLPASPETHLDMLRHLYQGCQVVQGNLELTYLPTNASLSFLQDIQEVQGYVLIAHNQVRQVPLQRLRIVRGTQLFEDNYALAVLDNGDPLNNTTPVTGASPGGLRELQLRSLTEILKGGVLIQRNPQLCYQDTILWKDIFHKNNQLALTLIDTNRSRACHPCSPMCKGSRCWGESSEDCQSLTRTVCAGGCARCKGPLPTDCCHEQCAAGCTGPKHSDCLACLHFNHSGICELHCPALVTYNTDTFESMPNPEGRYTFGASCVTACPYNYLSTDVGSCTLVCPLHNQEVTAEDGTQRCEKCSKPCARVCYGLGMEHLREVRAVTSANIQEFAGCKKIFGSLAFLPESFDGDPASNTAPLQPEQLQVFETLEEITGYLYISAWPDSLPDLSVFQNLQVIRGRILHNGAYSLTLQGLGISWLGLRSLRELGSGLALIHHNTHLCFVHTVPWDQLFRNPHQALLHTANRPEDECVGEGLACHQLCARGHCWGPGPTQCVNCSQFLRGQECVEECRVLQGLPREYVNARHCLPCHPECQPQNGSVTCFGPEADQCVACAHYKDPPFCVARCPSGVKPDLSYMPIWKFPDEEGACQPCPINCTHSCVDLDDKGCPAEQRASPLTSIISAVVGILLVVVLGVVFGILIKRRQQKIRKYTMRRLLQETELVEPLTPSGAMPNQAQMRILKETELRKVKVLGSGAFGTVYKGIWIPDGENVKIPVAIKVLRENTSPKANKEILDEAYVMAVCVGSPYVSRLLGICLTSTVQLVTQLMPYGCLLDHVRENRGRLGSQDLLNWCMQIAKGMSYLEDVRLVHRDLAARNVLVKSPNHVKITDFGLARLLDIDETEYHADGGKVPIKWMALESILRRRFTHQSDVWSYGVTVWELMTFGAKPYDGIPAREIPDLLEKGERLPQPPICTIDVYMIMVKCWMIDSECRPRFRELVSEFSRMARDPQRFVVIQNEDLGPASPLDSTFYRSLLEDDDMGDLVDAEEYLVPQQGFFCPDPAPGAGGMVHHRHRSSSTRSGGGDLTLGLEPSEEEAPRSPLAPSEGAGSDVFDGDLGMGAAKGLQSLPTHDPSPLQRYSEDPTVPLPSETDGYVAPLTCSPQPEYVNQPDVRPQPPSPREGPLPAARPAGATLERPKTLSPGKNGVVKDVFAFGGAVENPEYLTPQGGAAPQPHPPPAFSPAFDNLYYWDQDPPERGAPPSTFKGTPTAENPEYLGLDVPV

GI50 (BaF3 (EGFR/D770insSVD) [2]): 35.8 nM | GI50 (BaF3 (EGFR/L861Q)): 21.6 nM | GI50 (BaF3 (EGFR/S768I) [3]): 8.63 nM | GI50 (BaF3 (EGFR/N771insH) [5]): 8.67 nM | GI50 (BaF3 (EGFR/V774insHV)): 7.59 nM | GI50 (BaF3 (EGFR/V769insASV)): 24.8 nM | GI50 (BaF3 (HER2/P780insGSP)): 1.64 nM | GI50 (BaF3 (HER2/A775insYVMA)): 7.67 nM | GI50 (BaF3 (EGFR/A763insFQEA)): 12.8 nM | GI50 (BaF3 (EGFR/D770insNPG)): 4.69 nM | IC50 value lower than that of Osimertinib (AZD9291) (HER4 kinase; HER4 kinase): about 1 fold | IC50 (HER4 kinase; HER4 kinase inhibition test, read-out: Test 12 HER4 IC50): 29 nM | GI50 (BaF3 (HER2/G776insVC)): 12 nM
Structure (SMILES): C=CC(=O)Nc1cc(Nc2ncnc(-c3cn(C)c4ccccc34)n2)c(OC)cc1N(C)CCN(C)C [Compound 16]
cell activity compared with Osimertinib (AZD9291) against EGFR exon 20 insertion mutations (BaF3 (EGFR/D770insSVD) [1]): significant superior cell activity over Osimertinib (AZD9291) | activity compared with Osimertinib (AZD9291) against EGFR S768I and EGFR L861Q mutations (BaF3 (EGFR/S768I) [4]): superior activity over Osimertinib (AZD9291) | cell activity compared with Osimertinib (AZD9291) against EGFR exon 20 insertion mutations (BaF3 (EGFR/N771insH) [6]): significantly superior cell activity over Osimertinib (AZD9291)
